In PMC11475408, “All‐Inorganic Polyoxometalates Act as Superchaotropic Membrane Carriers” (Advanced Materials (Deerfield Beach, Fla.), 2023):

Experiments:
[1] = test system: CHO‐K1 cells; assay: FITC-Arg8 uptake in live cells, confocal imaging; format: cell-based, Chinese hamster; details: carrier 5 µM, 5 min, then FITC-Arg8 5 µM, 30 min, 37 °C, four biological replicates
Method: CHO‐K1 cells were plated into µ‐Slide 8‐well plates (ibidi) at a density of ≈1 × 10^5 cells per well (per 1 mL) and incubated for 24 h in Ham's F‐12 medium containing 10% v/v fetal bovine serum and 1.0% penicillin streptomycin at 37 °C in a 5% CO2 atmosphere. The cells were washed twice with Hank's buffer, incubated for 5 min at 37 °C in Ham's F‐12 medium without phenol red with carrier (5 µM), and subsequently in Ham's F‐12 medium without phenol red with 5 µM FITC‐Arg8 for 30 min at 37 °C. Cells in the absence of carrier were used as control. The cells were washed twice with Hank's buffer containing 100 µg mL^−1 heparin and then washed twice with Ham's F‐12 medium without phenol red. The nuclear staining was performed by incubating the cells with 10 µg mL^−1 Hoechst 33 342 (bis‐benzimide H33342 trihydrochloride) for 10 min at 37 °C. Cells were directly imaged as stated above.

[2] = ref [11]; cited from earlier work
Excerpt: Table 1 Stability of POMs in acidic and neutral pH and membrane transport parameters of different cargo molecules at pH 7.4 | column: Hydrolysis/stability / pH 5.5 ^e); Hydrolysis/stability / pH 7.5 ^f)

[3] = Membrane disruption of liposomes by POM alone (CF fluorescence, DLS); format: biochemical
Method: It should be noted that the addition of POMs alone (without cargo) retained the stability of the liposomes in the studied concentration range (up to 100 µM), that is, neither an increase in CF fluorescence nor changes in size distribution as obtained by dynamic light scattering experiments (DLS, see Figure S4, Supporting Information) were observed, which would have signaled membrane rupture. These negative controls allowed us to proceed to the carrier experiments, with added cargo.
DLS experiments of the vesicles were carried out on a Malvern Instruments DTS Nano 2000 Zeta‐Sizer. A POM concentration of 100 µM was chosen as default, since this is the highest concentration at which membrane transport was evaluated. The cargo concentration was set to be same as in the transport experiments, namely 10 µM for heptaarginine, 1 µM for protamine, and 0.1 µM for polyarginine. Note that the POMs themselves, with a size of ≈1 nm, fall below the detection limit (>10 nm) of the DLS instrument.
Figure S3. Transport activity, Y, for polyarginine (0.1 µM) in EYPC[…]CF liposomes as a function of the concentration of the different evaluated POMs. Solid lines correspond to the resulting fit with the Hill equation. Blue squares are data obtained at neutral pH, and red stars data obtained at acidic pH.
Table S4. Membrane transport parametersa) of active POMs at neutralb) and acidicc) pH.
HeptaArgd) Protaminee) PolyArgf) carrier pH Hydrolysis/Stability
Ymax [%]g) EC50h) [µM] E i) Ymax [%] EC50 [µM] E Ymax [%] EC50 [µM] E […]
Figure S5. Transport kinetics (left pannels), dose response curves (middle pannels) for cargo transport, and size distribution (by DLS, right pannels) for [PW12]3‒ (top) and [SiW12]4‒ (bottom), measured with EYPC[…]CF liposomes at pH 7.4, but preserving the POM solution at pH 1.2 before addition. As shown in panel a, the addition of [PW12]3‒ alone gave a fluorescence increase, pointing to membrane disruption, which was confirmed by DLS (panel c). […]

Na3[α‐P^VW^VI 12O40]·nH2O [[PW12]^3‒]
FITC-Arg8 uptake promoted by carrier [1]: some apparent cellular uptake, but the cell morphology was highly compromised | FITC-Arg8 uptake promoted by carrier ([1]; listed as [PW12]3‒): highly compromised | Hydrolysis/stability pH 7.5 [2]: to [P^VW^VI 9O34]^9‒ ^j) | Membrane disruption with POM solution kept at pH 1.2 ([3]; POM alone added to liposomes, POM solution kept at pH 1.2, CF fluorescence): strong interaction and membrane disruption | Vesicle lysis at higher concentrations ([3]; higher than 100 µM POM, 10 mM Tris, 107 mM NaCl, pH 7.4): led to vesicle lysis
